Experimental data: PubChem BioAssay (NCI)
Values joined by “and” are separate entries in the source; they are usually repeats but may differ in a detail not shown here. Identical values can stand only once.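 Briefly, cells in 96-well plates were exposed to five compound concentrations for 48 h, and endpoints were estimated by linear interpolation. The concentration for 50% growth inhibition is given as GI50. At the TGI there is no net growth.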

Columns and labels:
Assay in all cases: NCI-60 cell line screen, 48 h
786-0 renal = system: 786-0 renal
HS 578T breast = system: HS 578T breast
CCRF-CEM leukemia = system: CCRF-CEM leukemia
MDA-MB-231 breast = system: MDA-MB-231 breast
IGROV1 ovarian = system: IGROV1 ovarian
OVCAR-3 ovarian = system: OVCAR-3 ovarian
DU-145 prostate = system: DU-145 prostate
MOLT-4 leukemia = system: MOLT-4 leukemia
TK-10 renal = system: TK-10 renal
NCI-H23 lung = system: NCI-H23 lung

Row | Compound | GI50 (786-0 renal) [µM] | TGI (786-0 renal) [µM] | GI50 (HS 578T breast) [µM] | TGI (HS 578T breast) [µM] | GI50 (CCRF-CEM leukemia) [µM] | TGI (CCRF-CEM leukemia) [µM] | GI50 (MDA-MB-231 breast) [µM] | TGI (MDA-MB-231 breast) [µM] | GI50 (IGROV1 ovarian) [µM] | TGI (IGROV1 ovarian) | GI50 (OVCAR-3 ovarian) [µM] | TGI (OVCAR-3 ovarian) | GI50 (DU-145 prostate) [µM] | TGI (DU-145 prostate) [µM] | GI50 (MOLT-4 leukemia) [µM] | TGI (MOLT-4 leukemia) [µM] | GI50 (TK-10 renal) [µM] | TGI (TK-10 renal) | GI50 (NCI-H23 lung) [µM] | TGI (NCI-H23 lung)
1 | COC(=O)c1ccc2c(c1)C(=O)c1c-2n(CCCN)c(=O)c2cc([N+](=O)[O-])ccc12 | < 0.025 | 0.302 | 0.422 | 1.15 | < 0.01 | 0.0759 | 0.426 | 0.96 | < 0.0156 | 0.352 µM | 0.242 | 1.55 µM | < 0.0159 | 0.391 | < 0.01 | 0.833 | 1.05 | 2.92 µM | < 0.0318 | 1.28 µM
2 | COc1cccc(-n2ncc3c(N/N=C/c4ccc(S(C)(=O)=O)cc4)ncnc32)c1 | 7.1 | 20.1 | 0.608 | 7.34 | > 25 | > 25 | 9.09 | > 24.1 | 11 | > 25 µM | 7.41 | > 23 µM | 16.4 | > 25 | > 25 | > 25 | 8.4 | > 23.3 µM | 11.9 | > 25 µM
3 | CC(=O)OC1CCC2(C)C(CCC3C4CC=C(C(C)=O)C4(C)OC(=O)CC32)C1 (configuration not stated) | 2.52 | 6.59 | 3.79 | 29.8 | 1.3 | 4.87 | 2.05 | 4.33 | 2.88 | 10.3 µM | 1.63 | 3.04 µM | 2.36 | 6.1 | 2.29 | 6.41 | 2.05 | 4.77 µM | 2.9 | 10.6 µM
4 | CNNC(=N\S(=O)(=O)c1cc(C(=O)Nc2ccc(Cl)cc2)c(Cl)cc1SCc1ccccc1)/N=C/c1ccc([N+](=O)[O-])s1 | > 100 | > 100 | 38.2 | > 100 | > 85.1 | > 100 | 6.2 | > 100 | > 70.1 | > 100 µM | > 100 | > 100 µM | > 20.3 | > 100 | > 100 | > 100 | > 100 | > 100 µM | > 100 | > 100 µM
5 | CCN(CC)CCCOc1cc(O)c2c(=O)cc(-c3ccccc3)oc2c1 | 11.3 | 24.1 | 10.2 | 26 | 10.4 | 26.8 | 6.54 | 18.9 | 6.17 | 22.1 µM | 15.5 | 34.1 µM | 10.2 | 21.8 | 3.29 | 8.71 | 10.3 | 25.3 µM | 11.4 | 23.4 µM
6 | S=C=NCc1ccccc1 |  | 1.65 |  | 53.6 |  | 2.48 |  | 5.14 |  | 8.17 µM |  | 11.3 µM |  | > 41.2 |  | 4.37 |  | 12.2 µM |  | 15.2 µM
7 | CC1(C)N=C(N)N=C(N)N1c1cccc(CCCCc2ccccc2)c1 | 0.518 | 16.4 | 4.57 | 28.5 | 0.123 | 7.04 | 2.47 | 21.3 | 0.135 | 10.1 µM | 0.35 | 8.74 µM | 0.351 | 15 | 0.319 | 8.76 | 0.704 | 20.3 µM | 0.402 | 14.1 µM
8 | O=C1c2ccccc2-c2n[nH]c3cccc1c23 | 11.9 | > 100 | 21 | > 100 |  | > 100 | 35.8 | > 100 | 9.32 | > 100 µM and 99.1 µM | 23.8 | 92.1 µM and > 100 µM | 13 | > 100 | 7.85 | > 100 | 7.44 | 52 µM and 76.2 µM |  | 58.1 µM and > 100 µM
9 | C=CC(=O)N1CCC([C@@H]2CCNc3c(C(N)=O)c(-c4ccc(Oc5ccccc5)cc4)nn32)CC1 | 12.9 | 53.1 | 14.7 | 46.8 | 19.4 | > 73.2 | 18.4 | 56.4 | 0.912 | 16.7 µM | 11 | 32 µM | 6.82 | 61.3 | 15.9 | > 93.6 | 0.385 | 7.77 µM | 17.5 | 43.2 µM
10 | COc1ccc(/C=C/C(=O)c2ccc3cc(OC)c(OC)cc3c2)cc1OC | 4.19 | 27.9 | 3.77 | 41.2 | 3.03 | 31.6 | 6.19 | > 100 | 4.72 | 63.4 µM | 3.2 | 13.5 µM | 4.01 | 15.7 | 3.07 | 9.53 | 3.17 | 9.97 µM | 6.9 | 32 µM
11 | O=Cc1ccc(Oc2c3ccccc3nc3occc23)cc1 | 18.7 | 54.5 | 13.4 | 51.6 | 13.8 | 35.4 |  | 22.5 | 24.6 | > 100 µM | 2.59 | 11.3 µM | 17.6 | 43.7 | 6.89 | 24.4 | 3.83 | 21 µM | 15 | 36 µM
12 | Nc1nc(N)c2c(ccc3nccc32)[nH]1 | 7.01 | > 100 | > 21.8 | > 64.7 | 1.57 | > 100 | 13.5 | 50 | 2.34 | 9.35 µM | 7.68 | 36.6 µM | 8.61 | 57.4 | 3.12 | > 92.1 | 17.4 | > 86.8 µM | 6.46 | > 100 µM
13 | O=c1oc2ccc(Cl)cc2c(=O)n1-c1cc(C(F)(F)F)cc(C(F)(F)F)c1 | 0.316 | 1.14 | 0.239 | 0.987 | 0.388 | 10.2 | 0.289 | 4.36 | 0.412 | 12.9 µM | 0.276 | 10.7 µM | 0.372 | 13.9 | 0.352 | 2.48 | 0.395 | 11 µM | 0.289 | 1.11 µM
14 | COc1cc(Cn2ccc3c2-c2oncc2CC3)cc(OC)c1 | 6.36 | 37.1 | 2.38 | 12.2 | 3.74 | > 100 | 6.58 | 81.4 | 7.44 | > 100 µM | 2.99 | 9.79 µM | 3.99 | > 100 | 4.09 | > 100 | 8.04 | > 100 µM | 3.89 | 52.9 µM
